Results taken from patent publication US12371454B2, “Cyclic peptide compound having Kras inhibitory action” (priority 2019, dated 2025).
pIC50: −log10 of the molar value. Starred links: 1 amine or outer side, 2 acyl side, 3 side chain; linkers in the order of their positions; H or OH if unused. Positions of bridges follow the written chain, without caps; N, C: chain ends. Non-standard residues stand in square brackets, D forms with d. Residues, ends and D or L forms follow the SMILES beside them. *: point of attachment. hPhe(3-Cl-4-CF3) = N[C@@H](CCc1ccc(C(F)(F)F)c(Cl)c1)C(=O)O; 3Oxa8azabicyclo(3.2.1)octane = C1CC2COCC1N2*; NMeAbu(4,4,4-F3) = CN[C@@H](CC(F)(F)F)C(=O)O; NMePhe(4-Me) = CN[C@@H](Cc1ccc(C)cc1)C(=O)O; NMePhe(4-F) = CN[C@@H](Cc1ccc(F)cc1)C(=O)O; NMedβ3hAla = C[C@H](CC(=O)[*:2])N(C)[*:1]; NMeGly(cPent) = CN[C@H](C(=O)O)C1CCCC1; NMeAla(cPr) = CN[C@@H](CC1CC1)C(=O)O; NMeCha = CN[C@@H](CC1CCCCC1)C(=O)O; NMehLeu = CN[C@@H](CCC(C)C)C(=O)O; NEtLeu = CCN[C@@H](CC(C)C)C(=O)O; NMeChg = CN[C@H](C(=O)O)C1CCCCC1; NMeI = CC[C@H](C)[C@H](NC)C(=O)O; NMeD = CN[C@@H](CC(=O)O)C(=O)O; NMeL = CN[C@@H](CC(C)C)C(=O)O; NMeNva = CCC[C@H](NC)C(=O)O; NMeV = CN[C@H](C(=O)O)C(C)C; d(β3hA) = C[C@@H](N)CC(=O)O; NMeS = CN[C@@H](CO)C(=O)O; Morpholide = C1CN(*)CCO1; NMeA = CN[C@@H](C)C(=O)O; Piperidide = C1CCN(*)CC1; Pyrrolidide = C1CCN(*)C1; dNMeA = CN[C@H](C)C(=O)O; Ac5c = NC1(C(=O)O)CCCC1; Aze = O=C(O)[C@@H]1CCN1; Cyclopropyl = C1CC1*; X14 = CC1(C)CCN(*)C1; Sar = CNCC(=O)O; Propyl = CCC*

Tests used:
[1] = tested on: Human pancreatic cancer cell line AsPC-1; assay: Measurement of AsPC-1 cell growth inhibition (AsPC-1 CGI); format: cell-based; settings: 96 h
In short: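 AsPC-1 cells in 15% FBS RPMI-1640 were exposed to test compound for 96 hours at 37° C, with CellTiter-Glo as endpoint.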

[2] = biological target: T1, Kras and SOS1 (biotin-tagged human Kras loaded with GDP, His-tagged human SOS1) (Homo sapiens, UniProt P01116, G12D); assay: Protein-protein interaction inhibition between Kras and SOS1 (KrasGl2D-SOS PPI) using AlphaScreen; format: binding; settings: AlphaScreen; biotin-tagged human Kras loaded with GDP, His-tagged human SOS1; read-out: KRAS G12D-SOS PPI IC50
T1 construct: made in house; host or cells: E. coli (stated for Kras only)
T1 sequence (P01116 1-188 isoform P01116-2 G12D): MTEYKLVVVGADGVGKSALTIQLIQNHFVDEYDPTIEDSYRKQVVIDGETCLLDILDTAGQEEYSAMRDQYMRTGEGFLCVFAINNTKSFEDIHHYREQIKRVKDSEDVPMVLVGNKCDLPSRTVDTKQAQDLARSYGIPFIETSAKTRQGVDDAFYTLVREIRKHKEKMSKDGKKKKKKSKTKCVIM
In short: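 Kras was produced in E. coli, purified, then loaded with GDP. It was paired via streptavidin acceptor beads with His-SOS1 held on nickel donor beads, and proximity signal at 520-620 nm was read after 680 nm illumination.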

Structure (SMILES) | pIC50 [1] | pIC50 [2]
CC[C@H](C)[C@@H]1NC(=O)[C@H](CC(C)C)N(C)C(=O)C[C@@H](C)N(C)C(=O)[C@H](C(C)C)N(C)C(=O)C2(CCCC2)NC(=O)[C@@H]2CCCN2C(=O)[C@H](CCc2ccc(C(F)(F)F)c(Cl)c2)NC(=O)CN(C)C(=O)[C@H](Cc2ccc(F)cc2)N(C)C(=O)CN(C)C(=O)CN(C)C1=O [Compound 1571] (cyclo([Ac5c][NMeV][NMedβ3hAla][NMeL]I[Sar][Sar][NMePhe(4-F)][Sar][hPhe(3-Cl-4-CF3)]P)) | 7.00 to 7.30 | 8.32
CC[C@H](C)[C@@H]1NC(=O)[C@H](CC(C)C)N(C)C(=O)C[C@@H](C(=O)N2CCCCC2)N(C)C(=O)[C@H](CCC(C)C)N(C)C(=O)C2(CCCC2)NC(=O)[C@@H]2CCCN2C(=O)[C@H](CCc2ccc(C(F)(F)F)c(Cl)c2)NC(=O)CN(C)C(=O)[C@H](CC2CCCCC2)N(C)C(=O)CN(C)C(=O)CN(C)C1=O [Compound 762] ([NMeL]I[Sar][Sar][NMeCha][Sar][hPhe(3-Cl-4-CF3)]P[Ac5c][NMehLeu][NMeD]-Piperidide; lactam N-11) | 6.30 to 7.00 | 8.26
CC[C@H](C)[C@@H]1NC(=O)[C@H](CC(C)C)N(C)C(=O)C[C@@H](C)NC(=O)[C@H](C2CCCC2)N(C)C(=O)C2(CCCC2)NC(=O)[C@@H]2CCCN2C(=O)[C@H](CCc2ccc(C(F)(F)F)c(Cl)c2)NC(=O)CN(C)C(=O)[C@H](Cc2ccc(C)cc2)N(C)C(=O)[C@@H]2CCN2C(=O)CN(C)C1=O [Compound 1500] (cyclo([Ac5c][NMeGly(cPent)][d(β3hA)][NMeL]I[Sar][Aze][NMePhe(4-Me)][Sar][hPhe(3-Cl-4-CF3)]P)) | 6.30 to 7.00 | 8.41
CC[C@H](C)[C@@H]1NC(=O)[C@H](CC(C)C)N(C)C(=O)C[C@@H](C(=O)N2CCC(C)(C)C2)N(C)C(=O)[C@H](C2CCCCC2)N(C)C(=O)C2(CCCC2)NC(=O)[C@@H]2CCCN2C(=O)[C@H](CCc2ccc(C(F)(F)F)c(Cl)c2)NC(=O)CN(C)C(=O)[C@H](CC2CCCCC2)N(C)C(=O)CN(C)C(=O)CN(C)C1=O [Compound 1150] ([NMeL]I[Sar][Sar][NMeCha][Sar][hPhe(3-Cl-4-CF3)]P[Ac5c][NMeChg][NMeD]-X14; lactam N-11) | 7.00 to 7.30 | 9.28
CCCOC[C@H]1C(=O)N(C)CC(=O)N[C@@H](CCc2ccc(C(F)(F)F)c(Cl)c2)C(=O)N2CCC[C@H]2C(=O)NC2(CCCC2)C(=O)N(C)[C@@H](C2CCCCC2)C(=O)N(C)[C@H](C(=O)N2C3CCC2COC3)CC(=O)N(C)[C@@H](CC(F)(F)F)C(=O)N[C@@H]([C@@H](C)CC)C(=O)N(C)CC(=O)N(C)CC(=O)N1C [Compound 943] ([NMeAbu(4,4,4-F3)]I[Sar][Sar][NMeS](Propyl)[Sar][hPhe(3-Cl-4-CF3)]P[Ac5c][NMeChg][NMeD]-{3Oxa8azabicyclo(3.2.1)octane}; lactam N-11) | 6.30 to 7.00 | 9.08
CC[C@H](C)[C@@H]1NC(=O)[C@H](CC(C)C)N(C)C(=O)C[C@@H](C(=O)N(C)C)N(C)C(=O)[C@H]([C@@H](C)CC)N(C)C(=O)C2(CCCC2)NC(=O)[C@@H](C)N(C)C(=O)[C@H](CCc2ccc(C(F)(F)F)c(Cl)c2)NC(=O)CN(C)C(=O)[C@H](Cc2ccc(C)cc2)N(C)C(=O)[C@@H]2CCN2C(=O)[C@H](C)N(C)C1=O [Compound 288] ([NMeL]I[NMeA][Aze][NMePhe(4-Me)][Sar][hPhe(3-Cl-4-CF3)][dNMeA][Ac5c][NMeI][NMeD]-NMe2; lactam N-11) | 6.30 to 7.00 | 8.77
CC[C@H](C)[C@@H]1NC(=O)[C@H](CC(C)C)N(CC)C(=O)C[C@@H](C(=O)N2CCOCC2)N(C)C(=O)[C@H](C2CCCCC2)N(C)C(=O)C2(CCCC2)NC(=O)[C@@H]2CCCN2C(=O)[C@H](CCc2ccc(C(F)(F)F)c(Cl)c2)NC(=O)CN(C)C(=O)[C@H](CC2CCCCC2)N(C)C(=O)CN(C)C(=O)CN(C)C1=O [Compound 1189] ([NEtLeu]I[Sar][Sar][NMeCha][Sar][hPhe(3-Cl-4-CF3)]P[Ac5c][NMeChg][NMeD]-Morpholide; lactam N-11) | 7.00 to 7.30 | 9.13
CC[C@H](C)[C@@H]1NC(=O)[C@H](CC(C)C)N(C)C(=O)C[C@@H](C(=O)N2CCCCC2)N(C)C(=O)[C@H](C(C)C)N(C)C(=O)C2(CCCC2)NC(=O)[C@@H]2CCCN2C(=O)[C@H](CCc2ccc(C(F)(F)F)c(Cl)c2)NC(=O)CN(C)C(=O)[C@H](COC2CC2)N(C)C(=O)[C@@H]2CCN2C(=O)[C@H](C)N(C)C1=O [Compound 1738] ([NMeL]I[NMeA][Aze][NMeS](Cyclopropyl)[Sar][hPhe(3-Cl-4-CF3)]P[Ac5c][NMeV][NMeD]-Piperidide; lactam N-11) | 6.30 to 7.00 | 7.96
CCC[C@H]1C(=O)N[C@@H]([C@@H](C)CC)C(=O)N(C)CC(=O)N(C)CC(=O)N(C)[C@@H](Cc2ccc(C)cc2)C(=O)N(C)CC(=O)N[C@@H](CCc2ccc(C(F)(F)F)c(Cl)c2)C(=O)N2CCC[C@H]2C(=O)NC2(CCCC2)C(=O)N(C)[C@@H](C2CCCCC2)C(=O)N(C)[C@H](C(=O)N2CCCC2)CC(=O)N1C [Compound 2004] ([NMeNva]I[Sar][Sar][NMePhe(4-Me)][Sar][hPhe(3-Cl-4-CF3)]P[Ac5c][NMeChg][NMeD]-Pyrrolidide; lactam N-11) | 7.30 to 7.70 | 9.48
CC[C@H](C)[C@@H]1NC(=O)[C@H](CC(C)C)N(C)C(=O)C[C@@H](C(=O)N2CCCCC2)N(C)C(=O)[C@H](C(C)C)N(C)C(=O)C2(CCCC2)NC(=O)[C@@H]2CCCN2C(=O)[C@H](CCc2ccc(C(F)(F)F)c(Cl)c2)NC(=O)CN(C)C(=O)[C@H](CC(C)C)N(C)C(=O)[C@@H]2CCN2C(=O)[C@H](C)N(C)C1=O [Compound 1803] ([NMeL]I[NMeA][Aze][NMeL][Sar][hPhe(3-Cl-4-CF3)]P[Ac5c][NMeV][NMeD]-Piperidide; lactam N-11) | 6.30 to 7.00 | 8.28
CCCOC[C@H]1C(=O)N(C)CC(=O)N[C@@H](CCc2ccc(C(F)(F)F)c(Cl)c2)C(=O)N2CCC[C@H]2C(=O)NC2(CCCC2)C(=O)N(C)[C@@H](C2CCCCC2)C(=O)N(C)[C@H](C(=O)N2CCOCC2)CC(=O)N(C)[C@@H](CCC)C(=O)N[C@@H]([C@@H](C)CC)C(=O)N(C)CC(=O)N(C)CC(=O)N1C [Compound 1949] ([NMeNva]I[Sar][Sar][NMeS](Propyl)[Sar][hPhe(3-Cl-4-CF3)]P[Ac5c][NMeChg][NMeD]-Morpholide; lactam N-11) | 6.30 to 7.00 | 9.22
CC[C@H](C)[C@@H]1NC(=O)[C@H](CC(C)C)N(C)C(=O)C[C@@H](C(=O)N(C)C)N(C)C(=O)[C@H](C2CCCC2)N(C)C(=O)C2(CCCC2)NC(=O)[C@H](C)N(C)C(=O)[C@H](CCc2ccc(C(F)(F)F)c(Cl)c2)NC(=O)CN(C)C(=O)[C@H](CC2CCCCC2)N(C)C(=O)[C@@H]2CCN2C(=O)[C@H](C)N(C)C1=O [Compound 274] ([NMeL]I[NMeA][Aze][NMeCha][Sar][hPhe(3-Cl-4-CF3)][NMeA][Ac5c][NMeGly(cPent)][NMeD]-NMe2; lactam N-11) | 7.00 to 7.30 | 9.09
CC[C@H](C)[C@@H]1NC(=O)[C@H](CC(C)C)N(C)C(=O)C[C@@H](C(=O)N2CCCCC2)N(C)C(=O)[C@H](CC2CC2)N(C)C(=O)C2(CCCC2)NC(=O)[C@@H]2CCCN2C(=O)[C@H](CCc2ccc(C(F)(F)F)c(Cl)c2)NC(=O)CN(C)C(=O)[C@H](CC2CCCCC2)N(C)C(=O)CN(C)C(=O)CN(C)C1=O [Compound 787] ([NMeL]I[Sar][Sar][NMeCha][Sar][hPhe(3-Cl-4-CF3)]P[Ac5c][NMeAla(cPr)][NMeD]-Piperidide; lactam N-11) | 6.30 to 7.00 | 8.54
